In patent US20060235012A1, “Carboline and betacarboline derivatives for use as hdac enzyme inhibitors” (Chroma Therapeutics Limited, priority 2003, published 2006):

Molecular target: histone deacetylase activity (HeLa nuclear extract)
Test: HDAC fluorescent activity assay (Biomol Fluor de Lys), HeLa nuclear extract
Format: biochemical
Conditions: HeLa nuclear extract as HDAC source; Fluor de Lys substrate; IC50 range; read-out: Inhibitor Activity versus HDAC
Protocol: The ability of compounds of Examples 1 to 17 to inhibit histone deacetylase activities was measured using the commercially available HDAC fluorescent activity assay from Biomol. In brief, the Fluor de Lys™ substrate, a lysine with an epsilon-amino acetylation, is incubated with the source of histone deacetylase activity (HeLa nuclear extract) in the presence or absence of inhibitor. Deacetylation of the substrate sensitises the substrate to Fluor de Lys™ developer, which generates a fluorophore. Thus, incubation of the substrate with a source of HDAC activity results in an increase in signal that is diminished in the presence of an HDAC inhibitor.
Data are expressed as a percentage of the control, measured in the absence of inhibitor, with background signal being subtracted from all samples, as follows:— % activity=((S^i−B)/(S^o−B))×100 where S^i is the signal in the presence of substrate, enzyme and inhibitor, S^o is the signal in the presence of substrate, enzyme and the vehicle in which the inhibitor is dissolved, and B is the background signal measured in the absence of enzyme.
IC50 values were determined by non-linear regression analysis, after fitting the results of eight data points to the equation for sigmoidal dose response with variable slope (% activity against log concentration of compound), using Graphpad Prism software.
Histone deacetylase activity from crude nuclear extract derived from HeLa cells was used for screening. The preparation, purchased from 4C (Seneffe, Belgium), was prepared from HeLa cells harvested whilst in exponential growth phase. The nuclear extract is prepared according to Dignam J D 1983 Nucl. Acid. Res. 11, 1475-1489, snap frozen in liquid nitrogen and stored at −80° C. The final buffer composition was 20 mM Hepes, 100 mM KCl, 0.2 mM EDTA, 0.5 mM DTT, 0.2 mM PMSF and 20% (v/v) glycerol.

`O=C(CCCCCC(=O)N1Cc2[nH]c3ccccc3c2C[C@@H]1C(=O)O)NO` [Example 15] was tested, and the IC50 was 330 to 1000 nM.

`COc1ccc2[nH]c3c(c2c1)CCN(C(=O)CCCCCCC(=O)NO)C3` [Example 3] gave an IC50 of less than 330 nM.

For `O=C(CCCCCCCC(=O)N1Cc2[nH]c3ccccc3c2C[C@@H]1C(=O)O)NO` [Example 17], the IC50 was 330 to 1000 nM.

With `COC(=O)[C@H]1Cc2c([nH]c3ccccc23)CN1C(=O)CCCCCC(=O)NO` [Example 11] the IC50 was 330 to 1000 nM.

For `O=C(CCCCCCC(=O)N1CCc2c([nH]c3ccccc23)C12CCCCC2)NO` [Example 14], the IC50 was less than 330 nM.

Compound `COc1ccc2[nH]c3c(c2c1)CCN(C(=O)CCCCCC(=O)NO)C3` [Example 6] has an IC50 of less than 330 nM.

Work on `O=C(CCCCCC(=O)N1CCc2c([nH]c3ccccc23)C1C(F)(F)F)NO` (stereo not shown) [Example 8] yielded an IC50 of 330 to 1000 nM.

Compound `COC(=O)[C@H]1Cc2c([nH]c3ccccc23)CN1C(=O)CCCCCCCC(=O)NO` [Example 12] has an IC50 of 330 to 1000 nM.

Compound `O=C(CCCCCCC(=O)N1CCc2c([nH]c3ccccc23)C1C(F)(F)F)NO` (stereo not shown) [Example 9] has an IC50 of less than 330 nM.

For `COc1ccc2[nH]c3c(c2c1)CCN(C(=O)CCCCCCCC(=O)NO)C3` [Example 7], the IC50 was less than 330 nM.

In the case of `O=C(CCCCCC(=O)N1CCc2c([nH]c3ccccc23)C12CCCCC2)NO` [Example 13], the IC50 is reported as 330 to 1000 nM.

`O=C(CCCCCCC(=O)N1Cc2[nH]c3ccccc3c2C[C@@H]1C(=O)O)NO` [Example 16] was tested, and the IC50 was less than 330 nM.

Work on `O=C(CCCCCCCC(=O)N1CCc2c([nH]c3ccccc23)C1)NO` [Example 5] yielded an IC50 of less than 330 nM.

`COC(=O)[C@H]1Cc2c([nH]c3ccccc23)CN1C(=O)CCCCCCC(=O)NO` [Example 4] was tested, and the IC50 was less than 330 nM.

`O=C(CCCCCC(=O)N1CCc2c([nH]c3ccccc23)C1)NO` [Example 2] showed an IC50 of less than 330 nM.

`O=C(CCCCCCCC(=O)N1CCc2c([nH]c3ccccc23)C1C(F)(F)F)NO` (stereo not shown) [Example 10] was tested, and the IC50 was less than 330 nM.
